Patent publication US7196192B2, “28-epirapalogs” (Ariad Gene Therapeutics, Inc., priority 1999, dated 2007)
Like-named read-outs stand apart in the source and are kept apart here.

Experiments:
FKBP = FKBP (Homo sapiens, UniProt P62942); test: FKBP competitive binding assay based on fluorescence polarization (FP); details: competitive FP binding, methods of Example 2.5
Protocol: A Competitive Binding FP Assay is described in detail in WO99/36553 and WO96/41865. That assay permits the in vitro measurement of an IC50 value for a given compound which reflects its ability to bind to an FKBP-protein in competition with a labeled FKBP ligand, such as, for example, FK506.
(§1) A diverse group of C7-modified 28-epirapalogs were prepared as described in Example 4.

murine splenocyte = murine splenocyte assay for immunosuppressive activity; format: cell-based; details: mouse splenocyte assay, methods of Example 2.5, read-out: Splenocyte IC50
Protocol: 3. Conventional murine splenocyte assay for immunosuppressive activity.
as §1

[1] = target: T1, transcriptional switch components containing FKBP and 2098L mutant FRB domains (Homo sapiens, UniProt P42345+P62942); test: transcription assay in engineered HD1080 cells expressing SEAP (txn 2098L); format: cell-based
T1 construct: transcriptional switchcomponents containing FKBP and 2098L mutant FRB domains, respectively; fused on or other part: The two switch components are separate chimeric proteins; Neither is given for this cell line
From the text: The ability of the rapalogs to multimerize chimeric proteins may be measured in cell-based assays by measuring the occurrence of an event triggered by such multimerization. For instance, one may use cells containing and capable of expressing DNA encoding a first chimeric protein comprising one or more FKBP-domains and one or more effector domains as well as DNA encoding a second chimeric protein containing an FRB domain and one or more effector domains capable, upon multimerization, of actuating a biological response. We prefer to use cells which further contain a reporter gene under the transcriptional control of a regulatory element (i.e., promoter) which is responsive to the multimerization of the chimeric proteins. The design and preparation of illustrative components and their use in so engineered cells is described in WO99/36553 and WO96/41865 and the other international patent applications referred to in this and the foregoing section. (See also W099/10510 for additional guidance on the design, assembly and delivery of nucleic acids to render cells and animals responsive to rapalogs of interest and for additional guidance on applications of such systems.) The cells are grown or maintained in culture. A rapalog is added to the culture medium and after a suitable incubation period (to permit gene expression and secretion, e.g. several hours or overnight) the presence of the reporter gene product is measured. Positive results, i.e., multimerization, correlates with transcription of the reporter gene as observed by the appearance of the reporter gene product. The reporter gene product may be a conveniently detectable protein (e.g. by ELISA) or may catalyze the production of a conveniently detectable product (e.g. colored). Materials and methods for producing appropriate cell lines for conducting such assays are disclosed in the international patent applications cited above in this section.
2. EC50 values of the various compounds was measured in a transcription assay using genetically engineered HD1080 cells which constitutively express transcriptional switch components containing FKBP and 2098L mutant FRB domains, respectively and which regulatably express secreted alkaline phosphatase (SEAP) in the presence of a compound which multimerizes the switch components. The assay is a literature assay. See WO 99/36553, e.g. Example 12, pages 120–121 (& FIG. 2D) […]

[2] = cellular transcription assay, methods of Example 2.5; read-out: TXN 2098L EC50
[3] = read-out: TXN 2098L EC50; cellular transcription assay, methods of Example 2.5

Sequence of FKBP (P62942 whole entry): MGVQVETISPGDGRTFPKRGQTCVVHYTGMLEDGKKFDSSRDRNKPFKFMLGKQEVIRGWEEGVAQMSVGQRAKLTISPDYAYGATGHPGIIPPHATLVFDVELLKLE
T1 sequence (P62942 2-108 limits assumed, stated change not applied, other chains not shown): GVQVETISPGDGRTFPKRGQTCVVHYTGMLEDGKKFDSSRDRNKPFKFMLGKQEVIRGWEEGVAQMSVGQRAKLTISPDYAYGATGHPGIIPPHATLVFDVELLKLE

| IC50 (FKBP; read-out: FKBP IC50) [nM] | IC50 (murine splenocyte; Mus musculus, Splenocyte) [nM] | EC50 [1, 2] [nM] | Structure (SMILES) | TXN 2098L peak relative to rapamycin peak ([1]; superscript mark on EC50 cell) | IC50 (murine splenocyte) [nM] | IC50 (FKBP; FKBP IC50 (nM)) [nM] | EC50 [1, 3] [nM] |
| --- | --- | --- | --- | --- | --- | --- | --- |
| 19 | 2630 | 35 | CCCS(=O)(=O)N(C)C1CC2CCC(C)C(O)(O2)C(=O)C(=O)N2CCCCC2C(=O)OC(C(C)CC2CCC(O)C(OC)C2)CC(=O)C(C)C=C(C)C(O)C(OC)C(=O)C(C)CC(C)C=CC=CC=C1C (single isomer, unassigned) [28-epi-7S-N-Me-propanesulfonamide] | (+) (peak was >125% rapamycin peak) |  |  |  |
| 30 |  | 12 | CCOC(=O)N(C)C1CC2CCC(C)C(O)(O2)C(=O)C(=O)N2CCCCC2C(=O)OC(C(C)CC2CCC(O)C(OC)C2)CC(=O)C(C)C=C(C)C(O)C(OC)C(=O)C(C)CC(C)C=CC=CC=C1C (single isomer, unassigned) [28-epi-7S-N-methyl-ethylcarbamate] | (−) (peak was <80% rapamycin peak) | 2290 |  |  |
| 70 |  | 18 | COC1CC(CC(C)C2CC(=O)C(C)C=C(C)C(O)C(OC)C(=O)C(C)CC(C)C=CC=CC=C(C)C(OCc3ccccc3)CC3CCC(C)C(O)(O3)C(=O)C(=O)N3CCCCC3C(=O)O2)CCC1O (single isomer, unassigned) [28-epi-7S-benzyloxy] |  | 93 |  |  |
| 163 | 1150 | 8 | CO[C@@H]1C[C@H](C[C@@H](C)[C@@H]2CC(=O)[C@H](C)/C=C(\C)[C@H](O)[C@@H](OC)C(=O)[C@H](C)C[C@H](C)/C=C/C=C/C=C(\C)[C@H](N(C)C(=O)OCc3ccccc3)C[C@@H]3CC[C@@H](C)[C@@](O)(O3)C(=O)C(=O)N3CCCC[C@H]3C(=O)O2)CC[C@H]1O [28-epi-7R-N-Me-benzylcarbamate] | (−) (peak was <80% rapamycin peak) |  |  |  |
| 37 | 166 | 8 | CO[C@@H]1C[C@H](C[C@@H](C)[C@@H]2CC(=O)[C@H](C)/C=C(\C)[C@H](O)[C@@H](OC)C(=O)[C@H](C)C[C@H](C)/C=C/C=C/C=C(\C)[C@H](N(C)S(C)(=O)=O)C[C@@H]3CC[C@@H](C)[C@@](O)(O3)C(=O)C(=O)N3CCCC[C@H]3C(=O)O2)CC[C@H]1O [28-epi-7R-N-Me-methanesulfonamide] |  |  |  |  |
| 11 | 0.16 | 20 | CCCCS(=O)(=O)N[C@@H]1C[C@@H]2CC[C@@H](C)[C@@](O)(O2)C(=O)C(=O)N2CCCC[C@H]2C(=O)O[C@H]([C@H](C)C[C@@H]2CC[C@@H](O)[C@H](OC)C2)CC(=O)[C@H](C)/C=C(\C)[C@H](O)[C@@H](OC)C(=O)[C@H](C)C[C@H](C)/C=C/C=C/C=C/1C [28-epi-7R-butanesulfonamide] |  |  |  |  |
| 7.2 | 91 | 24 | CO[C@@H]1C[C@H](C[C@@H](C)[C@@H]2CC(=O)[C@H](C)/C=C(\C)[C@H](O)[C@@H](OC)C(=O)[C@H](C)C[C@H](C)/C=C/C=C/C=C(\C)[C@H](NS(C)(=O)=O)C[C@@H]3CC[C@@H](C)[C@@](O)(O3)C(=O)C(=O)N3CCCC[C@H]3C(=O)O2)CC[C@H]1O [28-epi-7R-methanesulfonamide] |  |  |  |  |
| 19 | 200 to 1950 | 9 | CO[C@@H]1C[C@H](C[C@@H](C)[C@@H]2CC(=O)[C@H](C)/C=C(\C)[C@H](O)[C@@H](OC)C(=O)[C@H](C)C[C@H](C)/C=C/C=C/C=C(\C)[C@H](Oc3ccccc3)C[C@@H]3CC[C@@H](C)[C@@](O)(O3)C(=O)C(=O)N3CCCC[C@H]3C(=O)O2)CC[C@H]1O [28-epi-7R-phenyloxy] | (−) (peak was <80% rapamycin peak) |  |  |  |

| Structure (SMILES) | IC50 (FKBP; read-out: FKBP IC50) [nM] | IC50 (murine splenocyte; Mus musculus, Splenocyte) [nM] | EC50 [1, 2] [nM] | TXN 2098L peak relative to rapamycin peak ([1]; superscript mark on EC50 cell) | IC50 (murine splenocyte) [nM] | IC50 (FKBP; FKBP IC50 (nM)) [nM] | EC50 [1, 3] [nM] |
| --- | --- | --- | --- | --- | --- | --- | --- |
| CCN([C@@H]1C[C@@H]2CC[C@@H](C)[C@@](O)(O2)C(=O)C(=O)N2CCCC[C@H]2C(=O)O[C@H]([C@H](C)C[C@@H]2CC[C@@H](O)[C@H](OC)C2)CC(=O)[C@H](C)/C=C(\C)[C@H](O)[C@@H](OC)C(=O)[C@H](C)C[C@H](C)/C=C/C=C/C=C/1C)S(C)(=O)=O [28-epi-7R-N-Et-methanesulfonamide] |  | 189 |  | (+) (peak was >125% rapamycin peak) |  | 31 | 8 |
| CO[C@@H]1C[C@H](C[C@@H](C)[C@@H]2CC(=O)[C@H](C)/C=C(\C)[C@H](O)[C@@H](OC)C(=O)[C@H](C)C[C@H](C)/C=C/C=C/C=C(\C)[C@H](N(C)S(=O)(=O)c3ccc(C)cc3)C[C@@H]3CC[C@@H](C)[C@@](O)(O3)C(=O)C(=O)N3CCCC[C@H]3C(=O)O2)CC[C@H]1O [28-epi-7R-N-Me-p-toluenesulfonamide] |  | 12 |  |  |  | 34 | 8 |
| CO[C@@H]1C[C@H](C[C@@H](C)[C@@H]2CC(=O)[C@H](C)/C=C(\C)[C@H](O)[C@@H](OC)C(=O)[C@H](C)C[C@H](C)/C=C/C=C/C=C(\C)[C@H](N(C)C(=O)Oc3ccc(C)cc3)C[C@@H]3CC[C@@H](C)[C@@](O)(O3)C(=O)C(=O)N3CCCC[C@H]3C(=O)O2)CC[C@H]1O [28-epi-7R-N-Me-p-tolylcarbamate] | 119 |  | 70 |  | 393 |  |  |
| C=CCO[C@@H]1C[C@@H]2CC[C@@H](C)[C@@](O)(O2)C(=O)C(=O)N2CCCC[C@H]2C(=O)O[C@H]([C@H](C)C[C@@H]2CC[C@@H](O)[C@H](OC)C2)CC(=O)[C@H](C)/C=C(\C)[C@H](O)[C@@H](OC)C(=O)[C@H](C)C[C@H](C)/C=C/C=C/C=C/1C [28-epi-7R-allyloxy] |  | 3400 |  |  |  | 11 | 25 |
| COC1CC(CC(C)C2CC(=O)C(C)C=C(C)C(O)C(OC)C(=O)C(C)CC(C)C=CC=CC=C(C)C(NC(=O)OCc3ccccc3)CC3CCC(C)C(O)(O3)C(=O)C(=O)N3CCCCC3C(=O)O2)CCC1O (stereo not drawn) [28-epi-7R-benzylcarbamate] | 12 |  | 9 | (+) (peak was >125% rapamycin peak) | 2260 |  |  |
| COc1ccc(C2CC3CCC(C)C(O)(O3)C(=O)C(=O)N3CCCCC3C(=O)OC(C(C)CC3CCC(O)C(OC)C3)CC(=O)C(C)C=C(C)C(O)C(OC)C(=O)C(C)CC(C)C=CC=CC=C2C)c(OC)c1 (stereo not drawn) [28-epi-7R-dimethoxyphenyl] | 54 |  | 26 |  | 22 to 28 |  |  |
| COC1CC(CC(C)C2CC(=O)C(C)C=C(C)C(O)C(OC)C(=O)C(C)CC(C)C=CC=CC=C(C)C(NS(=O)(=O)N(C)C)CC3CCC(C)C(O)(O3)C(=O)C(=O)N3CCCCC3C(=O)O2)CCC1O (stereo not drawn) [28-epi-7R-dimethylsulfamide] | 29 |  | 20 | (+) (peak was >125% rapamycin peak) | 1840 |  |  |
| CCOC(=O)N[C@@H]1C[C@@H]2CC[C@@H](C)[C@@](O)(O2)C(=O)C(=O)N2CCCC[C@H]2C(=O)O[C@H]([C@H](C)C[C@@H]2CC[C@@H](O)[C@H](OC)C2)CC(=O)[C@H](C)/C=C(\C)[C@H](O)[C@@H](OC)C(=O)[C@H](C)C[C@H](C)/C=C/C=C/C=C/1C [28-epi-7R-ethylcarbamate] |  | > 5000 |  | (+) (peak was >125% rapamycin peak) |  | 7.5 | 9 |
| CO[C@@H]1C[C@H](C[C@@H](C)[C@@H]2CC(=O)[C@H](C)/C=C(\C)[C@H](O)[C@@H](OC)C(=O)[C@H](C)C[C@H](C)/C=C/C=C/C=C(\C)[C@H](NS(=O)(=O)N(C)c3ccccc3)C[C@@H]3CC[C@@H](C)[C@@](O)(O3)C(=O)C(=O)N3CCCC[C@H]3C(=O)O2)CC[C@H]1O [28-epi-7R-methylphenylsulfamide] | 38 |  | 27 |  | 22 |  |  |
| COC1CC(CC(C)C2CC(=O)C(C)C=C(C)C(O)C(OC)C(=O)C(C)CC(C)C=CC=CC=C(C)C(c3ccc(C)s3)CC3CCC(C)C(O)(O3)C(=O)C(=O)N3CCCCC3C(=O)O2)CCC1O (stereo not drawn) [28-epi-7R-methylthiophene] | 120 |  | 22 |  | 394 to 424 |  |  |
| COC1CC(CC(C)C2CC(=O)C(C)C=C(C)C(O)C(OC)C(=O)C(C)CC(C)C=CC=CC=C(C)C(NC(=O)Oc3ccccc3)CC3CCC(C)C(O)(O3)C(=O)C(=O)N3CCCCC3C(=O)O2)CCC1O (stereo not drawn) [28-epi-7R-phenylcarbamate] | 9 |  | 10 | (+) (peak was >125% rapamycin peak) | > 5000 |  |  |
